Results taken from patent publication US8389011B2, “Pharmaceutical compositions of cholesteryl ester transfer protein inhibitors” (Bend Research, Inc., priority 2000, dated 2013).

Assay: In vitro dissolution test, microcentrifuge method, in model fasted duodenal solution (MFDS)
Format: physicochemical
Conditions: summary Table 48
Experimental: The compositions comprising the CETP inhibitor and concentration-enhancing polymer provide enhanced concentration of the dissolved CETP inhibitor in in vitro dissolution tests. It has been determined that enhanced drug concentration in in vitro dissolution tests in Model Fasted Duodenal (MFD) solution or Phosphate Buffered Saline (PBS) is a good indicator of in vivo performance and bioavailability. An appropriate PBS solution is an aqueous solution comprising 20 mM sodium phosphate (Na2HPO4), 47 mM potassium phosphate (KH2PO4), 87 mM NaCl, and 0.2 mM KCl, adjusted to pH 6.5 with NaOH. An appropriate MFD solution is the same PBS solution wherein additionally is present 7.3 mM sodium taurocholic acid and 1.4 mM of 1-palmitoyl-2-oleyl-sn-glycero-3-phosphocholine. In particular, a composition of the present invention can be dissolution-tested by adding it to MFD or PBS solution and agitating to promote dissolution.
A typical in vitro test to evaluate enhanced drug concentration in aqueous solution can be conducted by (1) adding with agitation a sufficient quantity of control composition, typically the CETP inhibitor alone, to the in vitro test medium, typically MFD or PBS solution, to achieve equilibrium concentration of the CETP inhibitor; (2) adding with agitation a sufficient quantity of test composition (e.g., the CETP inhibitor and polymer) in an equivalent test medium, such that if all the CETP inhibitor dissolved, the theoretical concentration of CETP inhibitor would exceed the equilibrium concentration of the CETP inhibitor by a factor of at least 10, and preferably a factor of at least 100; and (3) comparing the measured MDC and/or aqueous concentration versus time AUC of the test composition in the test medium with the equilibrium concentration, and/or the aqueous concentration versus time AUC of the control composition. In conducting such a dissolution test, the amount of test composition or control composition used is an amount such that if all of the CETP inhibitor dissolved the CETP inhibitor concentration would be at least 10-fold and preferably at least 100-fold that of the equilibrium concentration. Indeed, for some extremely insoluble CETP inhibitors, in order to identify the MDC achieved it may be necessary to use an amount of test composition such that if all of the CETP inhibitor dissolved, the CETP inhibitor concentration would be 10,000-fold or even more, that of the equilibrium concentration of the CETP inhibitor.
The concentration of dissolved CETP inhibitor is typically measured as a function of time by sampling the test medium and plotting CETP inhibitor concentration in the test medium vs. time so that the MDC can be ascertained. The MDC is taken to be the maximum value of dissolved CETP inhibitor measured over the duration of the test.
To avoid large CETP inhibitor particulates which would give an erroneous determination, the test solution is either filtered or centrifuged. “Dissolved CETP inhibitor” is typically taken as that material that either passes a 0.45 μm syringe filter or, alternatively, the material that remains in the supernatant following centrifugation. Filtration can be conducted using a 13 mm, 0.45 μm polyvinylidine difluoride syringe filter sold by Scientific Resources under the trademark TITAN®. Centrifugation is typically carried out in a polypropylene microcentrifuge tube by centrifuging at 13,000 G for 60 seconds. Other similar filtration or centrifugation methods can be employed and useful results obtained. For example, using other types of microfilters may yield values somewhat higher or lower (±10-40%) than that obtained with the filter specified above but will still allow identification of preferred dispersions. […]

## CCOC(=O)N1c2ccc(C(F)(F)F)cc2[C@@H](N(Cc2cc(C(F)(F)F)cc(C(F)(F)F)c2)C(=O)OC)C[C@H]1CC [Control 2, [2R,4S]4-[(3,5-bis-trifluoromethyl-benzyl)-methoxycarbonyl-amino]-2-ethyl-6-trifluoromethyl-3,4-dihydro-2H-quinoline-1-carboxylic acid ethyl ester]
AUC through 90 min
  AUC90: <88 min-μg/ml
Maximum Drug 2 concentration through 90 min
  Cmax, 90: <1 µg/mL
